From patent publication US8445526B2, “Compositions and methods for treatment of glaucoma” (Glaucoma & Nasal Therapies LLC, priority 2011, dated 2013)
In brackets after ≈: the same amount, converted by molar mass. Where two headings read alike, the source gives them in different places.

Assays:
normotensive rabbits = details: cited from earlier work; for contralateral (nontreated eye) IOP reduction compared to the treated eye / time of peak effect: normotensive rabbits; for time of peak effect: dexmedetomidine 0.05%, brimonidine tartrate 0.10%
[1] = test system: α-2 over α-1 adrenergic receptors; details: binding affinity for α-2 over α-1 receptors; cited from earlier work
one eye of an individual = experiment: Example 3: cosmetic appearance (redness, whiteness) of the treated eye; assay type: in vivo, human; details: for Eye White Shade: baseline 1; for Redness: baseline 1.5
normotensive eyes = details: under specific and very limited formulation conditions
[2] = test system: ocular hypertensive and normotensive eyes of patients; details: cited from earlier work; for equivalent reduction in normotensive human eyes: prior art formulations
[3] = test system: normotensive (<21 mm Hg) human subject; details: after instillation
Procedure: Various formulations of α-2 agonists were unilaterally administered to a normotensive (<21 mm Hg) human subject. The subject first underwent baseline IOP testing using standard applanation tonometry via slit lamp. After fluorescein instillation, the drug was instilled as a morning dose at between about 7:00 and 9:00 AM. […] Follow up IOP checks were designed to be about 4 hours after initial instillation, where instillation consisted of 1-2 drops.

[4] = conventional brimonidine formulations

In the case of brimonidine tartrate, the “peak IOP reduction” value (normotensive rabbits; 0.10% solution in normotensive rabbits) is listed as “about 6.2 mm Hg”.

In the case of `Clc1cccc(Cl)c1N=C1NCCN1` [Clonidine], the “α2:α1” value [1] is listed as 200.

For `Cc1cccc([C@H](C)c2cnc[nH]2)c1C` [Dexmedetomidine], the “start of decrease in hyperemia and increase in whiteness” value (one eye of an individual; after the application) was “about 2 minutes”, the “time to maximum whiteness” value (one eye of an individual; after the application) was “about 10 minutes” and the “Eye White Shade” value (one eye of an individual; dexmedetomidine 0.010%, 4 (whitest)-1 off-white-gray/yellow) was 1. For the same compound, the Redness (one eye of an individual; dexmedetomidine 0.010%, scale 0 (none)-4 (reddest + chemosis)) was 1.25, the Redness (one eye of an individual; dexmedetomidine 0.022%, scale 0-4) was 1.25 and the “Eye White Shade” value (one eye of an individual; dexmedetomidine 0.022%, scale 4-1) was 1.25. The Redness (one eye of an individual; dexmedetomidine 0.050%, scale 0-4) was 1.0, the “Eye White Shade” value (one eye of an individual; dexmedetomidine 0.050%, scale 4-1) was 1.5 and the Redness (one eye of an individual; dexmedetomidine 0.10%, scale 0-4) was 0.75. The “Eye White Shade” value (one eye of an individual; dexmedetomidine 0.10%, scale 4-1) was 1.75, the Redness (one eye of an individual; dexmedetomidine […], scale 0-4) was 1.0 and the “Eye White Shade” value (one eye of an individual; dexmedetomidine […], scale 4-1) was 1.5. For the same compound, the “total duration of the effect (reduced hyperemia, increase in whiteness)” value (one eye of an individual; in vivo) was 3 to 5 h, the “pressure reduction in the nontreated (contralateral) eye relative to the treated eye” value (normotensive rabbits; 0.02% in normotensive rabbits, U.S. Pat. No. 5,304,569) was 100% and the pressure reduction (normotensive rabbits; 0.05% in normotensive rabbits, Vartiainen et al) was 4.75 mm Hg. The “contralateral (nontreated eye) IOP reduction compared to the treated eye” value (normotensive rabbits) was “about 100%”, the “time of peak effect” value (normotensive rabbits) was “about 2 hours” and the “more effective than brimonidine by (IOP reduction vs. time)” value (normotensive eyes) was “about 200%”. For the same compound, the “α2:α1” value [1] was 1620, the max soluble concentration (pH 6) was 0.195% and the “solubility” value (pH 6) was 1953 µg/mL (≈ 9750 µM). The max soluble concentration (pH 6.4) was 0.060%, the max soluble concentration (pH 7) was 0.023% and the “solubility” value (pH 7) was 224 µg/mL (≈ 1120 µM). The max soluble concentration (pH 7.4) was 0.015%, the max soluble concentration (pH 8) was 0.013% and the “solubility” value (pH 8) was 134 µg/mL (≈ 669 µM). The “equivalent reduction in normotensive human eyes” value [2] was “about 20%”.

For `Nc1cc(Cl)c(N=C2NCCN2)c(Cl)c1` [Apraclondine], the “α2:α1” value [1] is given as 150.

For `Cc1cccc(C)c1N=C1NCCCS1` [Xylazine], the “α2:α1” value [1] is listed as 160.

In the case of `Brc1c(NC2=NCCN2)ccc2nccnc12` [Brimonidine], the “contralateral (nontreated eye) IOP reduction compared to the treated eye” value (normotensive rabbits) is given as “about 10%”, the “time of peak effect” value (normotensive rabbits) is given as “about 3 hours” and the “substantial local side effects” value ([2]; conjunctival hyperemia, blepharitis, allergy, edema, follicles, foreign body sensation, burning, blurring) is given as 10-25 % of users. The “time of peak IOP reduction effect after instillation” value ([2]; conventional brimonidine formulations, normotensive eyes) was 2 to 3 h, the “duration of IOP reduction effect of a single dose” value [2, 4] was no more than 12 h and the “peak IOP reduction effect in normotensive eyes” value [2, 4] was 15-18%. For the same compound, the “peak IOP reduction in normotensive eyes (less than 21 mm Hg)” value ([2]; human, in vivo) was 6-18%, the “peak IOP reduction in ocular hypertensive eyes” value ([2]; human, in vivo) was 20-25% and the “peak effect within (time of instillation)” value ([2]; human, in vivo) was 2 to 3 h. The “topical lid and conjunctival allergy, dryness, and redness” value ([2]; human, in vivo) was “over 10 % of patients”, the “users complaining of dryness” value ([2]; human, in vivo) was “more than 10%” and the rebound redness ([2]; long term use) was 20-25%. The “equivalent reduction in normotensive human eyes” value [2] was “about 20%”, the duration of effect ([2]; typically) was “less than 12 hours” and the “IOP reduction peaking at (time)” value [3] was 2 h.

For `Cc1cc(C(C)(C)C)c(O)c(C)c1CC1=NCCN1` [Oxymetazoline], the “α2:α1” value [1] is listed as 50.

In the case of `CC(Oc1c(Cl)cccc1Cl)C1=NCCN1` (stereo not shown) [Lofexidine], the “α2:α1” value [1] is listed as less than 300.
